Laboratory results from patent publication USRE40086E1, “Method for treating bacterial infection with novel 7-substituted-9-substituted amino 6-demethyl-6-deoxytetracyclines” (Wyeth Holdings Corporation, priority 1991, dated 2008).

What was measured:
[1] = tested on: X. maltophilia NEMC 87210; assay: MIC, agar dilution (Table IA); type: cell-based; settings: unit assumed
[2] = tested on: S. aureus Smith (Sensitive); assay: MIC, agar dilution; type: cell-based; settings: S. aureus SMITH (MP); Table IA; unit assumed
E. coli #311 (MP) = assay: MIC, agar dilution (Table IA); type: cell-based; settings: unit assumed
[3] = tested on: S. aureus UBMS 88-5 (tetM); assay: MIC, agar dilution; type: cell-based; settings: S. aureus UBMS 88-5 TetM; Table IA; unit assumed
E. coli ATCC 25922 = assay: MIC, agar dilution; type: cell-based; settings: E. coli ATCC 25922; Table IA; unit assumed
[4] = tested on: S. aureus UBMS 90-2 (tetM); assay: MIC, agar dilution; type: cell-based; settings: S. aureus UBMS 90-2 TetM; Table IA; unit assumed
[5] = tested on: S. aureus UBMS 90-1 (tetM); assay: MIC, agar dilution; type: cell-based; settings: S. aureus UBMS 90-1 TetM; Table IA; unit assumed
[6] = tested on: E. coli UBMS 89-2 (Sensitive); assay: MIC, agar dilution; type: cell-based; settings: E. coli UBMS 89-2 Tet Sens.; Table IA; unit assumed
[7] = tested on: Ps. acruginosa ATCC 27853; assay: MIC, agar dilution (Table IA); type: cell-based; settings: unit assumed
E. coli UBMS 90-5 = assay: MIC, agar dilution (Table IA); type: cell-based; settings: unit assumed
[8] = tested on: S. aureus IVES 2943 (meth. resistant); assay: MIC, agar dilution; type: cell-based; settings: S. aureus IVES 2943; Table IA; unit assumed
E. coli UBMS 89-1 (tetM) = assay: MIC, agar dilution; type: cell-based; settings: E. coli UBMS 89-1 TetM; Table IA; unit assumed
S. aureus ROSE (MP) = assay: MIC, agar dilution (Table IA); type: cell-based; settings: unit assumed
E. coli J3272 TetD = assay: MIC, agar dilution (Table IA); type: cell-based; settings: unit assumed
[9] = tested on: S. aureus IVES 1983 (meth. resistant); assay: MIC, agar dilution; type: cell-based; settings: S. aureus IVES 1983; Table IA; unit assumed
E. faecalis ATCC 29212 = assay: MIC, agar dilution; type: cell-based; settings: E. faecalis ATCC 29212; Table IA; unit assumed
[10] = tested on: S. aureus UBMS 90-3 (Sensitive); assay: MIC, agar dilution; type: cell-based; settings: S. aureus UBMS 90-3; Table IA; unit assumed
E. coli BAJ9003 = assay: MIC, agar dilution (Table IA); type: cell-based; settings: unit assumed
E. coli MC4100 Tet sens. = assay: MIC, agar dilution (Table IA); type: cell-based; settings: unit assumed
S. aureus SMITH (sens) = assay: In vivo antibacterial evaluation, acute lethal infection in mice; settings: Oral
From the text: In Vivo Antibacterial Evaluation (Table VII)

E. coli MC4100 TetB = assay: MIC, agar dilution (Table IA); type: cell-based; settings: unit assumed
E. coli J2175 = assay: MIC, agar dilution (Table IA); type: cell-based; settings: unit assumed
E. faecalis 12201 = assay: MIC, agar dilution; type: cell-based; settings: Enterococcus 12201; Table IA; unit assumed
[11] = tested on: S. aureus ATCC 29213 (Sensitive); assay: MIC, agar dilution; type: cell-based; settings: S. aureus ATCC 29213; Table IA; unit assumed
E. coli PRP1 TetA = assay: MIC, agar dilution (Table IA); type: cell-based; settings: unit assumed
E. coli J3272 TetC = assay: MIC, agar dilution (Table IA); type: cell-based; settings: unit assumed
[12] = tested on: S. aureus UBMS 88-7 (tetK); assay: MIC, agar dilution; type: cell-based; settings: S. aureus UBMS 88-7 TetK; Table IA; unit assumed
S. aureus NEMC 8769/89-4 = assay: MIC, agar dilution (Table IA); type: cell-based; settings: unit assumed
E. coli UBMS 90-4 (tetM) = assay: MIC, agar dilution; type: cell-based; settings: E. coli UBMS 90-4 TetM; Table IA; unit assumed
S. mariescens FDOR 8733 = assay: MIC, agar dilution (Table IA); type: cell-based; settings: unit assumed
[13] = tested on: S. aureus UBMS 88-4 (Sensitive); assay: MIC, agar dilution; type: cell-based; settings: S. aureus UBMS 88-4; Table IA; unit assumed
E. coli UBMS 88-1 (tetB) = assay: MIC, agar dilution; type: cell-based; settings: E. coli UBMS 88-1 TetB; Table IA; unit assumed
[14] = tested on: S. haemolyticus AVAH 88-3; assay: MIC, agar dilution; type: cell-based; settings: S. hemolyticus AVHAH 88-3; Table IA; unit assumed
E. coli J3272 Tet sens. = assay: MIC, agar dilution (Table IA); type: cell-based; settings: unit assumed

SMILES | Antibacterial activity (MIC) [1] [µg/mL] | Antibacterial activity (MIC) [2] [µg/mL] | Antibacterial activity (MIC) (E. coli #311 (MP)) [µg/mL] | Antibacterial activity (MIC) [3] [µg/mL] | Antibacterial activity (MIC) (E. coli ATCC 25922) [µg/mL] | Antibacterial activity (MIC) [4] [µg/mL] | Antibacterial activity (MIC) [5] [µg/mL] | Antibacterial activity (MIC) [6] [µg/mL] | Antibacterial activity (MIC) [7] [µg/mL] | Antibacterial activity (MIC) (E. coli UBMS 90-5) [µg/mL] | Antibacterial activity (MIC) [8] [µg/mL] | Antibacterial activity (MIC) (E. coli UBMS 89-1 (tetM)) [µg/mL] | Antibacterial activity (MIC) (S. aureus ROSE (MP)) [µg/mL] | Antibacterial activity (MIC) (E. coli J3272 TetD) [µg/mL] | Antibacterial activity (MIC) [9] [µg/mL] | Antibacterial activity (MIC) (E. faecalis ATCC 29212) [µg/mL] | Antibacterial activity (MIC) [10] [µg/mL] | Antibacterial activity (MIC) (E. coli BAJ9003) [µg/mL] | Antibacterial activity (MIC) (E. coli MC4100 Tet sens.) [µg/mL] | Antibacterial activity (MIC) (E. coli MC4100 TetB) [µg/mL] | other results
CCCCCNCC(=O)Nc1cc(N(C)C)c2c(c1O)C(=O)C1=C(O)C3(O)C(=O)C(C(N)=O)=C(O)C(N(C)C)C3CC1C2.Cl.Cl (stereo not drawn) [DDD, [4S-(4alpha,12aalpha)]-4,7-Bis(dimethylamino)-1,4 4a,5,5a,6,11,12a-octahydro-3,10-12,12a-tetrahydroxy-1,11-dioxo-9-[[(pentylamino)acetyl]amino)-2-naphthacenecarboxamide dihydrochloride] | 0.5 | 0.25 | 0.5 | 0.5 | 0.5 | 0.5 | 1 | 0.5 | 32 | 0.5 | 4 | 0.25 | 4 | 0.25 | 4 | 0.25 | 0.5 | 0.12 | 0.12 | 0.5 | ED50 (S. aureus SMITH (sens)): 8 to 16 mg/kg; Antibacterial activity (MIC) (E. coli J2175): 0.5 µg/mL; Antibacterial activity (MIC) (E. faecalis 12201): 0.25 µg/mL; Antibacterial activity (MIC) [11]: 1 µg/mL; Antibacterial activity (MIC) (E. coli PRP1 TetA): 1 µg/mL; Antibacterial activity (MIC) (E. coli J3272 TetC): 0.5 µg/mL; Antibacterial activity (MIC) [12]: 2 µg/mL; Antibacterial activity (MIC) (S. aureus NEMC 8769/89-4): 0.25 µg/mL; Antibacterial activity (MIC) (E. coli UBMS 90-4 (tetM)): 0.5 µg/mL; Antibacterial activity (MIC) (S. mariescens FDOR 8733): 8 µg/mL; Antibacterial activity (MIC) [13]: 0.5 µg/mL; Antibacterial activity (MIC) (E. coli UBMS 88-1 (tetB)): 0.5 µg/mL; Antibacterial activity (MIC) [14]: 0.5 µg/mL
CN(C)c1cc(NC(=O)CNCC(=O)O)c(O)c2c1CC1CC3C(N(C)C)C(O)=C(C(N)=O)C(=O)C3(O)C(O)=C1C2=O (stereo not drawn) [KKK] | > 32 | 16 | > 32 | > 32 | > 32 | 32 | > 32 | > 32 | > 32 | > 32 | > 32 | > 32 | > 32 | > 32 | > 32 | 16 | 16 | 16 | 32 | > 32 | Antibacterial activity (MIC) (E. coli J3272 Tet sens.): > 32 µg/mL; Antibacterial activity (MIC) (E. coli J2175): > 32 µg/mL; Antibacterial activity (MIC) (E. faecalis 12201): > 32 µg/mL; Antibacterial activity (MIC) [11]: 32 µg/mL; Antibacterial activity (MIC) (E. coli PRP1 TetA): > 32 µg/mL; Antibacterial activity (MIC) (E. coli J3272 TetC): > 32 µg/mL; Antibacterial activity (MIC) [12]: > 32 µg/mL; Antibacterial activity (MIC) (S. aureus NEMC 8769/89-4): 32 µg/mL; Antibacterial activity (MIC) (E. coli UBMS 90-4 (tetM)): > 32 µg/mL; Antibacterial activity (MIC) (S. mariescens FDOR 8733): > 32 µg/mL; Antibacterial activity (MIC) [13]: 32 µg/mL; Antibacterial activity (MIC) (E. coli UBMS 88-1 (tetB)): > 32 µg/mL; Antibacterial activity (MIC) [14]: > 32 µg/mL
CC(C(=O)Nc1cc(N(C)C)c2c(c1O)C(=O)C1=C(O)C3(O)C(=O)C(C(N)=O)=C(O)C(N(C)C)C3CC1C2)N1CCCC1.Cl.Cl (stereo not drawn) [AAA, [7S-(7alpha,10aalpha)]-N-[9-(Aminocarbonyl)-4,7-bis(dimethylamino)-5,5a,6,6a,7,10,10a,12-octahydro-1,8,10a,11-tetrahydroxy-10,12-dioxo-2-naphthacenyl)-alpha-methyl-1-pyrrolidineacetamide dihydrochloride] | 0.5 | 0.25 | 0.25 | 0.25 | 0.25 | 0.25 | 0.5 | 0.5 | > 32 | 0.5 | 0.5 | 0.12 | 2 | 0.12 | 0.5 | 0.12 | 0.25 | 0.06 | 0.12 | 0.5 | ED50 (S. aureus SMITH (sens)): >16 mg/kg; Antibacterial activity (MIC) (E. coli J2175): 0.5 µg/mL; Antibacterial activity (MIC) (E. faecalis 12201): 0.12 µg/mL; Antibacterial activity (MIC) [11]: 0.25 µg/mL; Antibacterial activity (MIC) (E. coli PRP1 TetA): 0.5 µg/mL; Antibacterial activity (MIC) (E. coli J3272 TetC): 0.5 µg/mL; Antibacterial activity (MIC) [12]: 0.5 µg/mL; Antibacterial activity (MIC) (S. aureus NEMC 8769/89-4): 0.12 µg/mL; Antibacterial activity (MIC) (E. coli UBMS 90-4 (tetM)): 0.5 µg/mL; Antibacterial activity (MIC) (S. mariescens FDOR 8733): 4 µg/mL; Antibacterial activity (MIC) [13]: 0.25 µg/mL; Antibacterial activity (MIC) (E. coli UBMS 88-1 (tetB)): 0.5 µg/mL; Antibacterial activity (MIC) [14]: 0.5 µg/mL
CN(C)c1cc(NC(=O)CNCc2ccccc2)c(O)c2c1CC1CC3C(N(C)C)C(O)=C(C(N)=O)C(=O)C3(O)C(O)=C1C2=O.Cl.Cl (stereo not drawn) [EEE, [4S-(4alpha,12aalpha)]-4,7-Bis(dimethylamino)-1,4,4a,5,5a,6,11,12a-octahydro-3,10,12,12a-tetrahydroxy-1,11-dioxo-9-[[[(phenylmethyl)amino]acetyl]amino]-2-naphthacenecarboxamide dihydrochloride] | 1 | 0.25 | 0.5 | 0.5 | 0.5 | 0.25 | 0.5 | 4 | 32 | 0.5 | 2 | 0.5 | 8 | 0.5 | 2 | 0.25 | 0.25 | 0.25 | 0.5 | 4 | ED50 (S. aureus SMITH (sens)): 8 to 16 mg/kg; Antibacterial activity (MIC) (E. coli J2175): 4 µg/mL; Antibacterial activity (MIC) (E. faecalis 12201): 0.25 µg/mL; Antibacterial activity (MIC) [11]: 0.5 µg/mL; Antibacterial activity (MIC) (E. coli PRP1 TetA): 4 µg/mL; Antibacterial activity (MIC) (E. coli J3272 TetC): 2 µg/mL; Antibacterial activity (MIC) [12]: 2 µg/mL; Antibacterial activity (MIC) (S. aureus NEMC 8769/89-4): 0.12 µg/mL; Antibacterial activity (MIC) (E. coli UBMS 90-4 (tetM)): 0.5 µg/mL; Antibacterial activity (MIC) (S. mariescens FDOR 8733): 4 µg/mL; Antibacterial activity (MIC) [13]: 0.25 µg/mL; Antibacterial activity (MIC) (E. coli UBMS 88-1 (tetB)): 2 µg/mL; Antibacterial activity (MIC) [14]: 2 µg/mL
